Usually IC50 stands for the concentration that gives 50% inhibition.

The test system of this assay is M. tuberculosis H37Rv growth inhibition. In words: Mycobacterium tuberculosis H37Rv growth inhibition, cell based, confirmatory dose response (AID 1949).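 Also: bacteria grown 7 days with compound before Alamar blue readout.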

The structures appear in SMILES notation. Converted amounts (≈) assume the structure as drawn. Inconclusive results are not listed. The source made the active and inactive calls. No rule for the calls is given here.

For `COC(=O)COc1ccc(NC(=O)c2ccccc2C)cc1`, the IC50 is less than 0.1 µg/mL.

For the compound `C#CCOc1c(Br)cc(/C=C/[N+](=O)[O-])cc1OC`, the IC50 is 38.2 µg/mL (≈ 122 µM).

As for `CCCC(=O)N1CCN(c2ccc(NC(=O)c3ccc(-c4ccc(Cl)cc4)o3)cc2Cl)CC1`, the IC50 is 1.4 µg/mL (≈ 2.88 µM).

Regarding `Cc1ccc([N+](=O)[O-])cc1S(=O)(=O)Nc1cc(Br)c(O)c2ccccc12`, the IC50 was 11 µg/mL (≈ 25.1 µM).

For `CCOc1ccc(OCC(=O)Nc2cccc(F)c2)cc1`, the IC50 was less than 0.1 µg/mL.

For the compound `O=C(Nc1ccc(Br)c(Cl)c1)c1ccc(F)cc1`, the 50% inhibitory concentration (IC50) is 15.7 µg/mL (≈ 47.8 µM).

For the compound `O=C1c2cccc3cccc(c23)C(=O)N1c1ccc2[nH]c(=O)[nH]c2c1`, the 50% inhibitory concentration (IC50) was 33 µg/mL (≈ 100 µM).

Take `Cc1cc(C)cc(NC(=S)NC2CCCC2)c1`: the IC50 was 8.73 µg/mL (≈ 35.1 µM).

In the case of `CCOC(=O)c1c(NC(=S)NC2CCN(Cc3ccccc3)CC2)sc(C)c1-c1ccccc1`, the half-maximal inhibitory concentration (IC50) was 1.38 µg/mL (≈ 2.8 µM).

As for `CCOc1ccccc1NC(=O)COc1ccc(C(C)C)cc1`, the IC50 is 5.01 µg/mL (≈ 16 µM).

Take `COC(=O)COc1ccc2cc(-c3ccc(OC)c(OC)c3)c(=O)oc2c1`: the IC50 is 1.03 µg/mL (≈ 2.78 µM).

Regarding `COc1cc(Br)cc2cc(C(=O)Nc3cc(C(F)(F)F)ccc3Cl)c(=O)oc12`, the IC50 is > 50 µg/mL (inactive).

With `O=C1c2cccc3cc([N+](=O)[O-])cc(c23)C(=O)N1CCO`, the IC50 was > 50 µg/mL (inactive).

For `COC(=O)COc1ccc(Br)cc1C=O`, the IC50 is 12.4 µg/mL (≈ 45.5 µM).

For the compound `CC(C)(C)c1ccc(C(=O)Nc2nc(-c3ccccc3)ns2)cc1`, the IC50 is 3.05 µg/mL (≈ 9.04 µM).

Take `CCOC(=O)c1c(-c2ccc(C)o2)csc1NC(=S)NC(=O)N(C)C`: the half-maximal inhibitory concentration (IC50) is 1.85 µg/mL (≈ 4.85 µM).

As to `Cc1ccc(NS(=O)(=O)c2ccc(NC(=S)NC(=O)c3ccc(F)cc3)cc2)c(C)c1`, the IC50 is 8.09 µg/mL (≈ 17.7 µM).

For the compound `CCc1ccc(C2=CC(=O)c3ccccc3C2=O)cc1`, the IC50 is 5.94 µg/mL (≈ 22.6 µM).

As for `Cc1ccc2nc(/C(C#N)=C\c3c[nH]c4ccc(Br)cc34)[nH]c2c1`, the IC50 is 0.62 µg/mL (≈ 1.64 µM).

Take `Cc1ccnc(NC(=O)COc2ccc(C(C)(C)C)cc2Br)c1`: the IC50 was 5.61 µg/mL (≈ 14.9 µM).

As for `O=[N+]([O-])/C=C/c1c[nH]c2ccc(Br)cc12`, the IC50 is 8.61 µg/mL (≈ 32.2 µM).

Turning to `CC(=O)N1CCN(c2ccc(NC(=S)NC(=O)c3cc4ccccc4o3)cc2)CC1`, the IC50 is 2.74 µg/mL (≈ 6.49 µM).

Regarding `CCOc1ccc(Nc2cc(C)nc3ccc(C(=O)OC)cc23)cc1`, the IC50 was 3.71 µg/mL (≈ 11 µM).

As to `CCCCNCCOc1ccc2ccccc2c1Br`, the IC50 is 7.65 µg/mL (≈ 23.7 µM).

As for `O=C(Oc1ccc(Cl)c2cccnc12)c1ccccc1Br`, the IC50 was > 50 µg/mL (inactive).

Consider `N#Cc1ccc(-c2nc(-c3ccccc3)c(-c3cccs3)[nH]2)cc1`, for which the IC50 was 5.89 µg/mL (≈ 18 µM).

Turning to `O=C(CCN1Cc2ccccc2C1)c1ccc2c(c1)OCCO2`, the IC50 was > 50 µg/mL (inactive).

With `COc1ccc(OC(C)C(=O)Nc2ccc(Cl)cc2C)cc1` (stereo unspecified), the IC50 was 0.62 µg/mL (≈ 1.94 µM).

As for `CCOC(=O)c1cc(-c2ccccc2)sc1NC(=S)NC(C)c1ccncc1` (stereo unspecified), the IC50 was 1.47 µg/mL (≈ 3.57 µM).

With `Cn1nc([N+](=O)[O-])nc1Sc1ncnn1-c1ccccc1`, the IC50 was 2.98 µg/mL (≈ 9.83 µM).

With `O=C(CSc1ccccc1)Nc1ccc(-c2nc3ccccc3c(=O)o2)cc1`, the IC50 is 0.47 µg/mL (≈ 1.21 µM).

For `COc1ccc(-c2nc(NC(=O)c3ccccc3)n[nH]2)cc1OC`, the IC50 is 1.5 µg/mL (≈ 4.62 µM).

As for `COc1ccc(-c2oc3ncn(CCCn4ccnc4)c(=N)c3c2-c2ccc(OC)cc2)cc1`, the IC50 is 3.79 µg/mL (≈ 8.32 µM).

In the case of `COC(=O)COc1ccc(NC(=O)c2ccc(-c3ccccc3)cc2)cc1`, the IC50 was less than 0.1 µg/mL.

Take `O=C(NC(=S)N1CCc2ccccc21)c1ccccc1`: the IC50 was 1.45 µg/mL (≈ 5.14 µM).

Take `CCOC(=O)N1CCc2c(sc(NC(=O)c3ccc([N+](=O)[O-])o3)c2C(=O)Nc2ccc(OCC)cc2)C1`: the IC50 was 5.64 µg/mL (≈ 10.7 µM).

With `CN(C)C(=O)CSc1cccc2cccnc12`, the IC50 was 6.25 µg/mL (≈ 25.4 µM).

For `CCn1cc(C(=O)O)c(=O)c2cc(F)c(N3CCN(C(=S)NC)CC3)cc21`, the IC50 is 11.8 µg/mL (≈ 30.1 µM).

In the case of `O=C(Nc1nc2c(Cl)cccc2s1)c1ccc([N+](=O)[O-])o1`, the IC50 is 1.58 µg/mL (≈ 4.88 µM).

Consider `COC(=O)C1=C(C)NC2=C(C(=O)CC(c3ccc(F)cc3)C2)C1c1ccccc1Cl` (stereo unspecified), for which the IC50 is 3.64 µg/mL (≈ 8.55 µM).

As for `O=C(CCNc1ccc(F)c(Cl)c1)c1cccs1`, the IC50 is 4.3 µg/mL (≈ 15.2 µM).

In the case of `Cc1ccc(N2CC(C(=O)Nc3ncc([N+](=O)[O-])s3)CC2=O)cc1` (stereo unspecified), the IC50 is 28.3 µg/mL (≈ 81.6 µM).

In the case of `Cc1cc(OCCCn2ccnc2)ccc1C(C)C`, the IC50 was 4.44 µg/mL (≈ 17.2 µM).

In the case of `COc1ccc(Cn2c(=O)c3c(n4cnnc24)-c2ccccc2CC32CCCCC2)cc1`, the IC50 was 2.84 µg/mL (≈ 6.66 µM).

For `O=C(CCNc1cccc(F)c1)c1ccccc1`, the IC50 is 8.2 µg/mL (≈ 33.7 µM).

Take `O=Cc1cccc(OCC(=O)Nc2cccc(Cl)c2)c1`: the IC50 is 45 µg/mL (≈ 155 µM).

As to `C=CCc1cc(C)ccc1OCCCCn1ccnc1`, the IC50 was 1.45 µg/mL (≈ 5.36 µM).

For `COc1ccc(CCn2cnc3oc(-c4ccccc4)c(-c4ccccc4)c3c2=N)cc1OC`, the IC50 was > 50 µg/mL (inactive).

For `CCOC(=O)c1cnc2c(C)c(C)ccc2c1NCc1ccco1`, the IC50 was 3.91 µg/mL (≈ 12.1 µM).

As for `c1ccc(CCNc2nc(-c3ccccn3)cs2)cc1`, the IC50 was 0.4 µg/mL (≈ 1.42 µM).

Regarding `CC(C(=O)Oc1cccc2cccnc12)N1C(=O)C2C3C=CC(C4CC34)C2C1=O` (stereo unspecified), the IC50 is 3.16 µg/mL (≈ 8.14 µM).
